These results are taken from PubChem BioAssay (NCI).

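Dose response: 5 concentrations. Exposure: 48 h. Format: 96-well plates. Endpoint: linear interpolation; highest concentration if not reached. Abbreviation: GI50, concentration required for 50% inhibition of growth. TGI: concentration producing complete growth inhibition.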

Among the test systems are NCI-H460 lung; T-47D breast; A549 NSCLC; TK-10 renal; NCI-H226 lung; COLO 205 colon; RPMI-8226 leukemia; SK-MEL-28 melanoma; OVCAR-4 ovarian; SW-620 colon.
Test in all cases: DTP human tumour cell line panel, 48 h

`Cn1ccnc1C(=O)/C=C/c1ccc(CC(=O)Nc2ccccc2)cc1`: the GI50 was 2.32 µM with NCI-H460 lung; 5.23 µM with T-47D breast; 6.6 µM in the assay with A549 NSCLC; 7.44 µM in the assay on TK-10 renal; 8.59 µM in the assay with NCI-H226 lung; 3.77 µM with COLO 205 colon. For the same compound, the GI50 in the assay on RPMI-8226 leukemia is 1.45 µM; in the assay with SK-MEL-28 melanoma it was 5.69 µM; with OVCAR-4 ovarian it was 4.12 µM; in the assay with SW-620 colon, 2.75 µM. For the same compound, the total growth inhibition concentration (TGI) in the assay with NCI-H460 lung was 9.52 µM; with T-47D breast, greater than 25 µM; in the assay with A549 NSCLC it was greater than 25 µM; in the assay on TK-10 renal, 19.9 µM; in the assay on NCI-H226 lung it was greater than 25 µM; with COLO 205 colon it was 9.39 µM. The total growth inhibition concentration (TGI) with RPMI-8226 leukemia was 9.7 µM; in the assay on SK-MEL-28 melanoma, 17.8 µM; in the assay with OVCAR-4 ovarian, greater than 25 µM; with SW-620 colon, 8.81 µM.
`Fc1cccc(COc2ccc(Nc3ncnc4cc(-c5ccc[nH]5)sc34)cc2Cl)c1`: the GI50 with NCI-H460 lung is 2.09 µM; in the assay on T-47D breast, 0.0977 µM; with A549 NSCLC, 0.789 µM; in the assay with TK-10 renal, 0.482 µM; in the assay with NCI-H226 lung, 1.7 µM; with COLO 205 colon, 5.47 µM. The GI50 was 0.133 µM with RPMI-8226 leukemia, 7.96 µM in the assay with SK-MEL-28 melanoma, 0.0847 µM in the assay on OVCAR-4 ovarian and 8.56 µM in the assay with SW-620 colon. The TGI is greater than 15.3 µM with NCI-H460 lung; 7.35 µM in the assay with T-47D breast; 4.8 µM in the assay on A549 NSCLC; 2.64 µM in the assay on TK-10 renal; greater than 16.8 µM with NCI-H226 lung; 17.5 µM in the assay on COLO 205 colon. Besides, the concentration for total growth inhibition (TGI) in the assay with RPMI-8226 leukemia is greater than 15.9 µM; in the assay on SK-MEL-28 melanoma it was greater than 25 µM; in the assay with OVCAR-4 ovarian, 3.84 µM; in the assay on SW-620 colon, greater than 25 µM.
Consider `Nc1nc2c(c(=O)[nH]1)CN(c1ccc(S(N)(=O)=O)cc1)CN2`, for which the TGI with NCI-H460 lung, with T-47D breast, in the assay with A549 NSCLC, in the assay with TK-10 renal, in the assay on NCI-H226 lung and in the assay with COLO 205 colon was greater than 100 µM throughout. Besides, the total growth inhibition concentration (TGI) in the assay on RPMI-8226 leukemia, in the assay with SK-MEL-28 melanoma, with OVCAR-4 ovarian and with SW-620 colon was greater than 100 µM throughout.
For the compound `COc1cc(-c2cn(-c3ccc(Cl)cc3)c(C)c2C(=O)C(F)(F)F)cc(OC)c1OC`, the GI50 in the assay on NCI-H460 lung is 33.4 µM; in the assay with T-47D breast, 6.95 µM; with A549 NSCLC, 17.9 µM; with TK-10 renal, greater than 100 µM; with NCI-H226 lung it was greater than 100 µM; in the assay with COLO 205 colon, greater than 100 µM. For the same compound, the GI50 in the assay on RPMI-8226 leukemia is 5.3 µM; with SK-MEL-28 melanoma it was greater than 100 µM; in the assay with OVCAR-4 ovarian, 25.5 µM; with SW-620 colon, greater than 100 µM. For the same compound, the TGI in the assay with NCI-H460 lung, in the assay with T-47D breast, in the assay on A549 NSCLC, in the assay on TK-10 renal, with NCI-H226 lung and with COLO 205 colon was greater than 100 µM each time. The TGI with RPMI-8226 leukemia, in the assay with SK-MEL-28 melanoma, in the assay on OVCAR-4 ovarian and in the assay on SW-620 colon was greater than 100 µM throughout.
`CC1OC2CC(=O)OC2C2=C1C(=O)c1c(O)c3c(c(O)c1C2=O)C1CC(O)C3(O)C(C)O1` (stereo not given): the GI50 in the assay with NCI-H460 lung was 0.784 µM; in the assay with T-47D breast it was 0.336 µM; in the assay with A549 NSCLC, 0.869 µM; in the assay on TK-10 renal it was 0.302 µM; in the assay on NCI-H226 lung, 0.974 µM; in the assay with COLO 205 colon it was 0.186 µM. Moreover, the GI50 in the assay on RPMI-8226 leukemia was 0.267 µM; with SK-MEL-28 melanoma, 1.21 µM; with OVCAR-4 ovarian it was 0.381 µM; in the assay with SW-620 colon, 0.168 µM. The TGI came out at 3.14 µM in the assay with NCI-H460 lung; 1.55 µM in the assay with T-47D breast; 7.74 µM in the assay on A549 NSCLC; 1.12 µM in the assay on TK-10 renal; 3.18 µM in the assay with NCI-H226 lung; 0.453 µM in the assay with COLO 205 colon. The TGI came to 0.876 µM in the assay with RPMI-8226 leukemia, 2.74 µM with SK-MEL-28 melanoma, 1.23 µM in the assay on OVCAR-4 ovarian and 0.774 µM in the assay on SW-620 colon.
As for `COC(=O)CNC(=O)[C@@H](OC)[C@@H]1Cc2cc3cc(OC4CC(OC5CC(O)C(O)C(C)O5)C(O)C(C)O4)c(C)c(O)c3c(O)c2C(=O)[C@H]1OC1CC(OC2CC(OC3CC(C)(O)C(O)C(C)O3)C(O)C(C)O2)C(O)C(C)O1` (stereo not given in full), the GI50 in the assay on NCI-H460 lung was 0.097 µM; in the assay with T-47D breast, 0.256 µM; in the assay on A549 NSCLC, 0.183 µM; in the assay with TK-10 renal it was 0.402 µM; in the assay with NCI-H226 lung, 0.11 µM; with COLO 205 colon, 0.148 µM. The GI50 with RPMI-8226 leukemia is 0.116 µM; with SK-MEL-28 melanoma, 0.11 µM; in the assay on OVCAR-4 ovarian, 0.305 µM; in the assay on SW-620 colon, 0.184 µM. The TGI in the assay with NCI-H460 lung was greater than 50 µM; with T-47D breast, greater than 50 µM; in the assay on A549 NSCLC it was greater than 50 µM; in the assay on TK-10 renal, greater than 50 µM; in the assay with NCI-H226 lung, 0.414 µM; with COLO 205 colon, 1.18 µM. Besides, the TGI was 1.38 µM with RPMI-8226 leukemia, 1.03 µM in the assay on SK-MEL-28 melanoma, 5.4 µM with OVCAR-4 ovarian and greater than 50 µM in the assay with SW-620 colon.
Take `CC(=O)OCC1OC(n2ccc(=O)[nH]c2=O)C(OC(C)=O)C1OC(C)=O` (stereo not given): the GI50 in the assay on NCI-H460 lung, in the assay on T-47D breast, with A549 NSCLC, with TK-10 renal, in the assay on NCI-H226 lung and in the assay on COLO 205 colon was greater than 100 µM in each case. Further, the GI50 in the assay with RPMI-8226 leukemia, with SK-MEL-28 melanoma, in the assay with OVCAR-4 ovarian and in the assay on SW-620 colon was greater than 100 µM throughout. For the same compound, the TGI with NCI-H460 lung, in the assay with T-47D breast, in the assay on A549 NSCLC, in the assay with TK-10 renal, with NCI-H226 lung and in the assay on COLO 205 colon was greater than 100 µM in each case. The concentration for total growth inhibition (TGI) in the assay with RPMI-8226 leukemia, in the assay with SK-MEL-28 melanoma, in the assay on OVCAR-4 ovarian and in the assay with SW-620 colon was greater than 100 µM throughout.
As for `Cc1cc2c3ccccc3n(C)c2c2c1C(=O)C=CC2=O`, the TGI is 33.2 µM in the assay with NCI-H460 lung; 19.4 µM in the assay on T-47D breast; greater than 77.8 µM in the assay with A549 NSCLC; 31.2 µM in the assay with TK-10 renal; 42.5 µM in the assay on NCI-H226 lung; 33.6 µM in the assay with COLO 205 colon. Moreover, the concentration for total growth inhibition (TGI) in the assay on RPMI-8226 leukemia was determined as 5.47 µM; in the assay on SK-MEL-28 melanoma, 42.7 µM; in the assay on OVCAR-4 ovarian it was 18.7 µM; in the assay on SW-620 colon, 32.8 µM.
